Results from publication PMC13408522, “The Effect of Glycosylation on Biodistribution and Cytotoxicity of ^99mTc-Radiolabeled Luteolin” (Advanced Pharmaceutical Bulletin, 2025).
“Also recorded” adds a separate entry of the source. Like-named read-outs stand apart in the source and are kept apart here.

What was measured:
HepG2 cells [1] = settings: cited from earlier work
HUVEC cells = experiment: MTT cell viability assay, HUVEC normal cells; format: cell-based; settings: 5-200 µg/mL, 24 h
Procedure: (§1) According to the biodistribution results of Lu and LuG in the previous step, three cell lines were selected for further analysis. HUVEC cell line (an endothelial cell that was isolated from the umbilical cord vein) as a normal cell, SW480 as a colorectal cancer cell line, and HepG2 as a hepatocellular carcinoma cell line were obtained from the cell bank of Roshd Azma Company. They were cultured in Dulbecco’s Modified Eagle Medium (DMEM) supplemented with FBS 10% (Fetal Bovine Serum) and Pen/Sterp 10^4 U/mL (Penicillin- Streptomycin) at 37°C and 5% carbon dioxide (CO2). Then, 10^5 cells/mL were seeded in 96-well cell culture plates and incubated for 24 h.
(§2) After 24 h, the cell lines were treated with Lu and LuG (5, 10, 25, 50, 75, 100, 200 µg/mL). The cytotoxicity effect of Lu and LuG was measured using the MTT (3-[4,5-dimethylthiazol-2-yl]- 2,5-diphenyltetrazolium bromide) assay for 24 h. Next, 20 μL of MTT solution (5 mg/mL) was added to each well, and the complexes were incubated at 37°C for 4 hours. Afterward, the culture medium was removed and replaced with DMSO 200 μL). The absorbance of each well was determined at 570 nm using an ELISA reader, and the cell viability percentage was calculated relative to the control group.

SW480 cells = experiment: MTT cell viability assay, SW480; format: cell-based; settings: 5-200 µg/mL, 24 h
Procedure: as §1, §2

HepG2 cells [2] = experiment: MTT cell viability assay, HepG2; format: cell-based; settings: 5-200 µg/mL, 24 h (LuG also 48 and 72 h)
Procedure: as §1, §2

HepG2 cells [3] = tested on: HepG2 cells; parameters: method as in PMID 32129972; settings: cited from earlier work
[4] = Biodistribution of 99mTc-radiolabeled flavonoids, organ radioactivity after SPECT imaging; parameters: species or system Wistar-Albino rats; settings: rat, in vivo
Procedure: Five milligrams of tin chloride (SnCl2) was dissolved in 1 mL of hydrochloric acid 10% and diluted with 3 mL of distilled water, and the pH was adjusted to 7. Then, 1 mg of Lu and LuG and about 4 mCi of fresh pertechnetate (^99mTcO4) in 2 mL of NaCl were added to the complex. Afterward, it was incubated at room temperature for 20 minutes.
An intraperitoneal injection of a ketamine and xylazine mixture anesthetized the Wistar-Albino rats. About 1.4 mCi of flavonoid-^99mTc complex (^99mTc-Lu and ^99mTc-LuG) was injected through the tail vein. The imaging was performed using SPECT (Single-Photon Emission Computed Tomography) at 0, 5, 15, 30, 60, and 90 min. Then, the animals were sacrificed in accordance with all ethical considerations, and each organ was carefully separated. The percentage of radioactivity in each organ was calculated by dividing the activity counted by the dose calibrator by the total radioactivity. This method ensured accurate assessment of the biodistribution of the radiolabeled compounds within the various organs.
Organ accumulation of ^99mTc−Lu/^99mTc−LuG (%)=(Amount of radioactivity counted in each organ/Amount of radioactivity counted in whole body)×100

HepG2 cells [5] = experiment: Annexin V-FITC/PI flow cytometry for apoptosis/necrosis; format: cell-based; settings: HepG2, 5, 30, 50 µg/mL
Procedure: According to the results of the previous steps, LuG was selected for flow cytometry testing on the HepG2 cancer cell line. […] HepG2 cells were treated with LuG (5, 30, 50 µg/mL) for 48 h and then washed with PBS. Next, 300 µL of binding buffer was added to 1 × 10^6 cells and incubated for 15 min at 25°C in away from the light with 4 µL of FITC Annexin V and 2 µL of PI. To investigate apoptotic or necrotic pathways, data were analyzed by FlowJo software. […] Additionally, cells without any treatment (negative control) and those treated with LuG (positive control) were designated as “Auto” and “Unstained”, respectively.

HepG2 cells [6] = tested on: HepG2 cells; parameters: method as in PMID 24257119; settings: 24 h treatment; cited from earlier work
HepG2 cells [7] = experiment: Cell cycle analysis by PI flow cytometry; format: cell-based
Procedure: HepG2 cells were seeded in 6-well plates and treated with various concentrations of Luteolin-7-O-glucoside for 24 h. After treatment, the cells were fixed in a solution of ethanol: water (7:3) at -20 °C. Then, ethanol-fixed cells were washed with PBS and incubated with RNase A (100 μL) for 30 min. Following the RNase treatment, the cells were incubated in a PI/Triton X-100 solution for an additional 30 minutes. The samples were analyzed using a flow cytometer (FACSCalibur), and the data were assessed with FlowJo version 10. Finally, the G0/G1 phase (2N DNA content), S phase (intermediate DNA content), and G2/M phase (4N DNA content) were calculated.[13]

[8] = listed as luteolin-7-O-glucoside

SMILES | apoptosis in HepG2 cells (HepG2 cells [1]; luteolin: ref 32) | cytotoxicity on normal HUVEC cells (in words) (HUVEC cells) | cytotoxicity on SW480 cells (in words) (SW480 cells) | cytotoxicity on HepG2 cells (in words) (HepG2 cells [2]) | cytotoxicity on HepG2 cells (in words) (HepG2 cells [2]; listed as luteolin) | effect on viability of HepG2 cell line (HepG2 cells [3]) | apoptosis in HepG2 cells (HepG2 cells [1]; LuG: ref 31) | elimination phase of the radiolabeled compound (in words) [4] | apoptosis/necrosis of HepG2 cells (in words) (HepG2 cells [5]) | apoptosis/necrosis of HepG2 cells (in words) (HepG2 cells [5]; [8]) | cell cycle effect in HepG2 (HepG2 cells [6]) | effect on cell cycle progression (in words) (HepG2 cells [7]; HepG2) | change in S phase versus control (HepG2 cells [7]; HepG2, 24 h) | decrease of 4N DNA content (G2/M phase) versus control (HepG2 cells [7]; HepG2, 24 h) | increase of 2N DNA content (G0/G1 phase) versus control (HepG2 cells [7]; HepG2, 24 h) | cytotoxicity on HepG2 cells (in words) (HepG2 cells [2]; [8])
O=c1cc(-c2ccc(O)c(O)c2)oc2cc(O)cc(O)c12 [Lu, 3′,4′,5,7-tetrahydroxy flavone] | triggers classical mitochondrial apoptosis | did not demonstrate any cytotoxicity | no inhibitory effects | less accumulation and cytotoxicity | less effective against HepG2 cells compared to the glycone form |  |  |  |  |  |  |  |  |  |  | 
O=c1cc(-c2ccc(O)c(O)c2)oc2cc(O[C@@H]3O[C@H](CO)[C@@H](O)[C@H](O)[C@H]3O)cc(O)c12 [LuG, luteolin-7-O-glucoside] |  | negligible toxicity; also recorded: did not demonstrate any cytotoxicity | negligible toxicity; also recorded: no inhibitory effects | significant cytotoxicity |  | dose-dependent effect | induced apoptotic features | more rapidly than that of its aglycone form | non-apoptotic cell death; also recorded: no significant increase | did not involve necrotic or apoptotic pathways | induced G2/M phase | impaired G1 to S progression | no significant changes | about 7% | approximately 5% | highest cytotoxic effect; also recorded: effectively inhibits HepG2 cell viability
